Data as given in US9855203B2, “Preserving personal care compositions” (The Procter & Gamble Company, priority 2013, dated 2018).

Assay: Log water solubility of preservatives
Settings: logarithm base 10 of molar solubility at 25° C.; from experimental solubility or Chemsilico CS log WSo-3.0

Compound | Log (water Solubility in mol/L)
OCc1ccccc1 [benzyl Alcohol] | −0.47 mol/L
C=CCCCCCCCCC(=O)O [Undecylenic Acid] | −3.15 mol/L
O=C(O)c1ccccc1O [Salicylic acid] | −1.41 mol/L

Continued, values first:

Log (water Solubility in mol/L) | Compound
−0.33 mol/L | C/C=C/C=C/C(=O)O [sorbic acid]
−1.91 mol/L | CCOC(=O)c1ccc(O)cc1 [ethyl paraben]
−0.83 mol/L | OCCc1ccccc1 [phenethyl alcohol]
−3.08 mol/L | CCCCCCC(O)CO (stereo not shown) [caprylyl glycol]
